≈ marks a conversion by molar mass, not a printed value. Calls of active or inactive are those of the source. The calls are words filed in the database; no cut-off is given here. Positions of bridges follow the written chain, without caps; N, C: chain ends. Residues, ends and D or L forms follow the SMILES beside them. Chains are numbered I, II in the order given. *: point of attachment. Butyryl = CCCC(=O)*
How the values were obtained:
[1] = tested on: Candida albicans; assay: Antifungal activity against Candida albicans cgmcc 2.2086 assessed as inhibition of fungal growth incubated for 48 hrs; format: functional
[2] = tested on: Candida albicans; assay: Antifungal activity against fluconazole-resistant Candida albicans 56214 assessed as inhibition of fungal growth incubated for 48 hrs; format: functional
[3] = tested on: Candida albicans; assay: Antifungal activity against Candida albicans SP 3931 assessed as inhibition of fungal growth incubated for 48 hrs; format: functional
[4] = tested on: Candida albicans; assay: Antifungal activity against Candida albicans 58288 assessed as inhibition of fungal growth incubated for 48 hrs; format: functional
[5] = tested on: Candida albicans; assay: Antifungal activity against Candida albicans SP 3903 assessed as inhibition of fungal growth incubated for 48 hrs; format: functional
[6] = tested on: Candida albicans; assay: Antifungal activity against Candida albicans 17546 assessed as inhibition of fungal growth incubated for 48 hrs; format: functional
[7] = tested on: Candida albicans; assay: Antifungal activity against Candida albicans 14936 assessed as inhibition of fungal growth incubated for 48 hrs; format: functional
[8] = tested on: Candida albicans; assay: Antifungal activity against Candida albicans 2.3989 assessed as inhibition of fungal growth incubated for 48 hrs; format: functional
[9] = tested on: Candida albicans; assay: Antifungal activity against Candida albicans SP 3902 assessed as inhibition of fungal growth incubated for 48 hrs; format: functional
[10] = Toxicity against human RBC assessed as hemolysis rate at 128 ug/ml incubated for 1 hr; format: cell-based, Erythrocyte; conditions: red blood cells (RBC), dose 128 µg/ml, read-out: Activity
[11] = tested on: HEK-293T; assay: Cytotoxicity against human HEK293T cells assessed as cell viability at 8 to 128 ug/ml incubated for 4 hrs by MTT assay; format: toxicity, cell-based; conditions: dose 8-128 µg/ml
[12] = Cytotoxicity against human HEK293T cells assessed as cell survival rate at 128 ug/ml incubated for 4 hrs by MTT assay; format: toxicity, cell-based, HEK-293T; conditions: dose 128 µg/ml, read-out: Activity
[13] = tested on: HEK-293T; assay: Cytotoxicity against human HEK293T cells assessed as damage to cells at 4XMIC incubated for 8 hrs by Calcein-AM/PI staining based fluorescence microscopy; format: toxicity, cell-based
[14] = tested on: RAW264.7; assay: Cytotoxicity against mouse RAW264.7 cells assessed as damage to cells at 4XMIC incubated for 8 hrs by Calcein-AM/PI staining based fluorescence microscopy; format: toxicity, cell-based; conditions: raw264.7, 8 h
[15] = tested on: Candida albicans; assay: Antifungal activity against Candida albicans assessed as inhibition of fungal growth incubated for 48 hrs in presence of KCl; format: functional, organism-based
[16] = tested on: Candida albicans; assay: Antifungal activity against Candida albicans assessed as inhibition of fungal growth incubated for 48 hrs in presence of NH4Cl; format: functional, organism-based
[17] = tested on: Candida albicans; assay: Antifungal activity against Candida albicans assessed as inhibition of fungal growth incubated for 48 hrs in presence of MgCl2; format: functional, organism-based
[18] = tested on: Candida albicans; assay: Antifungal activity against Candida albicans assessed as inhibition of fungal growth incubated for 48 hrs in presence of CaCl2; format: functional, organism-based
[19] = tested on: Candida albicans; assay: Antifungal activity against Candida albicans assessed as inhibition of fungal growth incubated for 48 hrs in presence of FeCl3; format: functional, organism-based
[20] = tested on: Candida albicans; assay: Antifungal activity against Candida albicans assessed as inhibition of fungal growth incubated for 48 hrs in presence of ZnCl2; format: functional, organism-based
[21] = tested on: Candida albicans; assay: Antifungal activity against Candida albicans assessed as inhibition of fungal growth incubated for 48 hrs in presence of NaCl; format: functional, organism-based
[22] = tested on: Candida albicans; assay: Antifungal activity against Candida albicans assessed as inhibition of fungal growth compound preincubated with upto 4 mg/ml trypsin for 4 hrs followed by incubation with fungus for 48 hrs; format: functional, organism-based
[23] = tested on: Candida albicans; assay: Antifungal activity against Candida albicans assessed as inhibition of fungal growth compound preincubated with upto 8 mg/ml chymotrypsin for 4 hrs followed by incubation with fungus for 48 hrs; format: functional, organism-based
[24] = tested on: Candida albicans; assay: Antifungal activity against Candida albicans assessed as inhibition of fungal growth compound preincubated with upto 8 mg/ml proteinase K for 4 hrs followed by incubation with fungus for 48 hrs; format: functional, organism-based
[25] = tested on: Candida albicans; assay: Antifungal activity against Candida albicans assessed as inhibition of fungal growth preincubated with 4 mg/ml trypsin for 8 hrs followed by incubation with fungus for 48 hrs; format: functional, organism-based
[26] = tested on: Candida albicans; assay: Antifungal activity against Candida albicans assessed as inhibition of fungal growth preincubated with 8 mg/ml chymotrypsin for 8 hrs followed by incubation with fungus for 48 hrs; format: functional, organism-based
[27] = tested on: Candida albicans; assay: Antifungal activity against Candida albicans assessed as inhibition of fungal growth preincubated with 8 mg/ml proteinase K for 8 hrs followed by incubation with fungus for 48 hrs; format: functional, organism-based
[28] = tested on: Candida albicans; assay: Fungicidal killing kinetic activity against fluconazole-resistant Candida albicans 56214 assessed as killing of fungi at 1XMIC to 4XMIC incubated with fungus in PBS solution for 3 mins followed by culturing on YPD plate for 48 hrs; format: functional, organism-based; conditions: time 2883.0 min
[29] = tested on: Candida albicans; assay: Inhibition of biofilm formation of fluconazole-resistant Candida albicans 56214 at 8 uM incubated for 48 hrs by crystal violet staining based analysis; format: functional
[30] = Drug penetration into mature fluconazole-resistant Candida albicans 56214 biofilms assessed as increase in green fluorescence intensity at 8 to 16 uM using FITC-labeled compound incubated in dark for 3 hrs by DAPI staining based laser confocal microscopy; format: ADME; conditions: dose 8-16 µM
[31] = tested on: Candida albicans; assay: Fungicidal activity against fluconazole-resistant Candida albicans 56214 assessed as killing effect within biofilms by measuring increase in red fluorescence intensity at 8 uM incubated for 3 hrs by SYTO9/PI staining based fluorescence microscopy; format: functional
[32] = tested on: Candida albicans; assay: Induction of morphological changes in Candida albicans 2.2086 at 8 to 16 uM incubated for 2 hrs by fluorescence cell imaging system; format: functional, organism-based; conditions: dose 8-16 µM
[33] = tested on: Cell wall; assay: Induction of cell wall permeability in Candida albicans 2.2086 at 16 uM by NPN probe based fluorescence analysis; format: subcellular
[34] = tested on: Cell wall; assay: Induction of cell wall permeability in Candida albicans 2.2086 assessed as increase in cell wall damage by NPN probe based fluorescence analysis; format: subcellular; conditions: dose 4-128 µM
[35] = tested on: Cell membrane; assay: Disruption of cytoplasmic membrane in Candida albicans 2.2086 assessed as increase in membrane depolarization at 1XMIC to 4XMIC measured after 500 secs by diSC3-5 dye based potentiometric analysis; format: subcellular; conditions: time 500.0 sec
[36] = tested on: Cell membrane; assay: Disruption of cytoplasmic membrane in Candida albicans 2.2086 assessed as increase in membrane depolarization at 1XMIC by diSC3-5 dye based potentiometric analysis
[37] = tested on: Candida albicans; assay: Fungicidal activity against fluconazole-resistant Candida albicans 56214 assessed as killing effect by measuring orange fluorescence at 8 uM incubated for 1 hr by SYTO9/PI staining based fluorescence microscopy; format: functional
[38] = tested on: Cell membrane; assay: Induction of cell membrane damage in Candida albicans assessed as scattered distribution of cell wall and cell membrane structures, loss of integrity and leakage of contents at 16 uM incubated for 1 hr by scanning electron microscopy; format: subcellular
[39] = tested on: Cell membrane; assay: Induction of cell membrane damage in Candida albicans assessed as scattered distribution of cell wall and cell membrane structures, loss of integrity and leakage of contents at 16 uM incubated for 1 hr by transmission electron microscopy; format: subcellular
[40] = Drug localization in Candida albicans cell membrane using FITC-labeled compound by FITC/PI staining based confocal microscopy; format: ADME, cell membranes
[41] = Drug localization in Candida albicans cell membrane using FITC-labeled compound at 8 uM incubated for 3 hrs by DAPI staining based fluorescence microscopy; format: ADME, cell membranes
[42] = tested on: Candida albicans; assay: Induction of ROS production in Candida albicans 2.2086 assessed as increase in intracellular ROS accumulation at <4 uM incubated for 1 hr by DCFH-DA staining based fluorescence analysis; format: functional, organism-based
[43] = tested on: Candida albicans; assay: Antifungal activity against fluconazole-resistant Candida albicans 56214 infected in ICR mouse assessed as wound healing with appearance of new skin tissue at 5 mg/ml administered topically bid for 3 days starting at 12 hrs post-infection and measured for 6 days; format: functional, organism-based; conditions: time 6.0 day
[44] = tested on: Candida albicans; assay: Antifungal activity against fluconazole-resistant Candida albicans 56214 infected in ICR mouse assessed as log reduction in fungal burden on the infected skin at 5 mg/ml administered topically bid for 3 days starting at 12 hrs post-infection and measured after 7 days; format: functional; conditions: time 7 day
[45] = tested on: Candida albicans; assay: Antifungal activity against fluconazole-resistant Candida albicans 56214 infected in ICR mouse assessed as elimination of fungal hyphae on the infected skin at 5 mg/ml administered topically bid for 3 days starting at 12 hrs post-infection and measured after 7 days by PAS staining; format: functional, organism-based; conditions: time 7.0 day
[46] = tested on: Candida albicans; assay: Antifungal activity against fluconazole-resistant Candida albicans 56214 infected in ICR mouse assessed as reduction in severity of skin infection at 5 mg/ml administered topically bid for 3 days starting at 12 hrs post-infection and measured after 7 days by PAS staining based analysis; format: functional, organism-based; conditions: time 7.0 day
[47] = tested on: Candida albicans; assay: Antifungal activity against fluconazole-resistant Candida albicans 56214 infected in ICR mouse assessed as reduction in oxidative stress by measuring decrease in ROS accumulation in skin wounds at 5 mg/ml administered topically bid for 3 days starting at 12 hrs post-infection and measured after 7 days by fluorescence staining based analysis; format: functional, organism-based; conditions: time 7.0 day
[48] = tested on: Candida albicans; assay: Antifungal activity against fluconazole-resistant Candida albicans 56214 infected in ICR mouse assessed as reduction in IL-6 expression in skin wound at 5 mg/ml administered topically bid for 3 days starting at 12 hrs post-infection and measured after 7 days by immunofluorescence analysis; format: functional, organism-based; conditions: time 7.0 day
[49] = tested on: Candida albicans; assay: Antifungal activity against fluconazole-resistant Candida albicans 56214 infected in ICR mouse assessed as reduction in TNF-alpha expression in skin wound at 5 mg/ml administered topically bid for 3 days starting at 12 hrs post-infection and measured after 7 days by immunofluorescence analysis; format: functional, organism-based; conditions: time 7.0 day

Compound: CCCC(=O)NCC(=O)NCC(=O)NCC(=O)N[C@@H](CCCCNC(=O)[C@@H]1CCCN1C(=O)[C@H](CCCNC(=N)N)NC(=O)[C@@H]1CCCN1C(=O)[C@H](CCCNC(=N)N)NC(=O)[C@@H]1CCCN1C(=O)[C@@H](N)CCCNC(=N)N)C(=O)N[C@@H](CCCCNC(=O)[C@@H]1CCCN1C(=O)[C@H](CCCNC(=N)N)NC(=O)[C@@H]1CCCN1C(=O)[C@H](CCCNC(=N)N)NC(=O)[C@@H]1CCCN1C(=O)[C@@H](N)CCCNC(=N)N)C(=O)N[C@@H](CCCNC(=N)N)C(=O)N1CCC[C@H]1C(=O)N[C@@H](CCCNC(=N)N)C(=O)N1CCC[C@H]1C(=O)N[C@@H](CCCNC(=N)N)C(=O)N1CCC[C@H]1C(N)=O (I: Butyryl-GGGKKRPRPRP-NH2 / II: H-RPRPRP / III: H-RPRPRP; amide I:4-II:C, I:5-III:C)
- MIC [1]: 4 µM (≈ 11.2 µg/mL)
- MIC [2]: 4 µM (≈ 11.2 µg/mL)
- MIC [3]: 4 µM (≈ 11.2 µg/mL)
- MIC [4]: 8 µM (≈ 22.4 µg/mL)
- MIC [5]: 4 µM (≈ 11.2 µg/mL)
- MIC [6]: 16 µM (≈ 44.7 µg/mL)
- MIC [7]: 4 µM (≈ 11.2 µg/mL)
- MIC [8]: 4 µM (≈ 11.2 µg/mL)
- MIC [9]: 4 µM (≈ 11.2 µg/mL)
- hemolysis at 1 h, 128 ug/ml [10]: < 2%
- Activity [11]: Non-toxic
- viability at 4 h, 128 ug/ml [12]: 95%
- Activity [13]: Non-toxic
- Activity [14]: Non-toxic
- Activity [15]: Active
- Activity [16]: Active
- Activity [17]: Active
- Activity [18]: Active
- Activity [19]: Active
- Activity [20]: Active
- Activity [21]: Active
- Activity [22]: Active
- Activity [23]: Active
- Activity [24]: Active
- Activity [25]: Active
- Activity [26]: Active
- Activity [27]: Active
- Activity [28]: Active
- inhibition at 8 µM [29]: 100%
- Drug uptake [30]: Active
- Activity [31]: >90%
- Activity [32]: Active
- Activity [33]: 100%
- Activity [34]: Dose-dependent-effect
- Activity [35]: Active
- Activity [36]: Active; Effective Depolarization Observed
- Activity [37]: 90%
- Activity [38]: Active
- Activity [39]: Active
- Drug uptake [40]: Active
- Drug uptake [41]: > 90%
- Activity [42]: Active
- Activity [43]: Active
- log(activity) [44]: ~1.7
- Activity [45]: Active
- Activity [46]: Active
- Activity [47]: Active
- Activity [48]: Active
- Activity [49]: Active

— ChEMBL document CHEMBL6121051, “Dendritic Antifungal Peptides as Potent Agents against Drug-Resistant Candida albicans and Biofilm” (J Med Chem, 2025)
